# According to patent US20210038732A1, “ANTICANCER MICRORNA AND LIPID FORMULATIONS THEREOF” (INTERNA TECHNOLOGIES B.V., priority 2018, published 2021):
# Key:
# [1] = tested on: 4T1; experiment: Caspase 3/7 apoptosis assay; format: cell-based, mouse; conditions: 10 nM, normalized to mock
# Protocol: Depending on cancer cell type 3000-6000 cells were seeded in a 96 well plate. After cells attached, they were transfected with different concentrations of miRNA-193a and apoptosis induction was measured at different time points. This assay was performed using Promega kit. 100 uL of caspase reagent was added to 100 uL of media in each well in 96-well plate and incubated for 2 hours in the dark at room temperature. The luminescent signal was read on a luminescent plate reader.
# (§1) Different biological effects of miRNA-193a-3p have been tested in various cancer cell lines (see Table 13). For this, various cells were treated with miRNA-193a at different concentrations (1, 3, 10 nM). For all experiments controls (untreated, mock and scrambled) were measured. All assays were performed at 24h, 48h and 72h time points. Data shown in Table 13 are the results for miRNA-193a at 10 nM concentration at indicated time points. All the results have been quantified and normalized to the mock control.
# (§2) miRNA-193a treatment in various cancer cell lines decreased cell viability over time as measured by either an MTS assay or by cell count. It enhanced apoptosis induction over time as measured by a caspase 3/7 apoptosis assay. […] It is of note that due to intrinsic characteristics and gene mutation status of each cell line, performing one method to detect apoptosis is not always ideal for all cell lines.
# [2] = tested on: genes downregulated in at least three cell lines; experiment: Annotation clustering of downregulated genes with DAVID software; parameters: species or system human
# Text: For clustering and pathway analysis, a bigger gene set was required. […] Other clusters contained genes with roles in angiogenesis, unfolded protein response, chemotaxis, protein transport, nucleoside metabolism, glycosylation, oncogenesis, wound healing. […] These 161 genes are ERMP1, MCL1, ZDHHC18, KIAA1147, IDS, EIF4B, ETS1, TXLNA, NT5E, WSB2, PLAUR, LRRC40, PTPLB, SLC15A1, NCEH1, IL17RD, STMN1, AIMP2, PHACTR2, GALNT1, LAMC2, SCP2, SLC26A2, LUZP1, SHMT2, UBP1, PHLDA2, ST5, ENDOD1, CGNL1, MARCKSL1, RAB11FIP5, CCND1, RUSC1, FAM168B, ZC3H7B, PPTC7, SLC39A5, ACSS2, TPP1, HYOU1, DCTN5, CRKL, WDFY2, WDR82, SLC6A12, CDK6, SULF2, TWISTNB, ATP5F1, ALDH9A1, TOR4A, NET1, RSF1, NUP50, ZMAT3, AP2M1, MPP2, ITGB3, GALNT14, SLC35D1, PPARGC1A, TBL1XR1, MSANTD3, CLSTN1, PITPNB, CECR2, KIAA1644, ARHGAP29, KIAA1191, GREB1, PIK3R1, TNFRSF21, SEPN1, SYNRG, LRP4, ZNF365, CRYAA, MED21, GNAI3, ATP5SL, UBE2L6, ANKRD13A, GCH1, NIPA1, TRIM62, USP39, HEG1, DCAF7, LRRC8A, SOX5, IRF1, MORC4, UNC119B, FAF2, SLC30A1, C1QBP, ST3GAL4, TRIB2, TBC1D5, TMPPE, MAPK8, CBX1, CADM1, CCDC28A, YWHAZ, ERAP2, STON2, AP5M1, TGFB2, CYTH1, FAM20B, DPY19L1, ARHGAP19, LPAR3, LMLN, NUDT15, PLAU, VAMP8, HHAT, AGPAT1, ATP8B2, ACPL2, SCAMP4, LAT2, OSMR, NUDT21, HPRT1, STARD7, GABPA, CDC42EP2, THBS4, ATP6V1B2, PRNP, GFPT1, MAX, KRAS, CNOT6, NUDT3, RFWD3, APPL1, SLC23A2, BOD1, PDE3A, SLC30A7, CEP41, NOTCH2, RGS2, CDC42EP4, TP53INP1, SQSTM1, DDAH1, SLC35D2, FOCAD, GPATCH11, CBL, TMEM30B, HFE, PLEKHB2, ARPC5, and ABI2. Among these genes, NT5E, TNFRSF21, YWHAZ, MAPK8, PLAU, PLAUR, NOTCH2, ETS1, IL17RD, CDK6, EIF4B, and MCL1 are particularly interesting for their crucial involvement in the cell cycle pathway, in immune activation, as well as in cell movement. […] ETS1, YWHAZ, MPP2, PLAU, CDK4, CDK6, EIF4B, RAD51, CCNA2, STMN1, and DCAF7 are of particular interest for their crucial involvement in regulation of the cell cycle.
# [3] = tested on: EMT6; experiment: Cell viability (MTS assay or cell count); format: cell-based; conditions: 10 nM; TNBC EMT6; normalized to mock
# Protocol: (§3) Depending on cancer cell type 3000-6000 cells were seeded in a 96 well plate. After cells attached, they were transfected with different concentrations of miRNA-193a and viability was measured at different time points. Viability measurement was performed using CellTiter 96 AQueous One Solution Cell Proliferation Assay (Promega). 20 μL of MTS reagent was added to 100 μL of media in each well in 96-well plate and incubated for 2 hours at 37° C. Absorbance was measured at 490 nm for each sample in 96 well plate reader.
# as §1, with “All assays were performed at 24h, 48h and 72h time points.” left out
# as §2
# [4] = tested on: Panc-1; experiment: Cell viability (MTS assay or cell count); format: cell-based; conditions: 10 nM; Pancreas Panc-1; normalized to mock
# Protocol: as §3
# as §1, with “All assays were performed at 24h, 48h and 72h time points.” left out
# as §2
# [5] = tested on: H1975; experiment: Cell viability (MTS assay or cell count); format: cell-based; conditions: 10 nM; NSCLC H1975; normalized to mock
# Protocol: as §3
# as §1, with “All assays were performed at 24h, 48h and 72h time points.” left out
# as §2
# [6] = tested on: H1299; experiment: Cell viability (MTS assay or cell count); format: cell-based; conditions: 10 nM; NSCLC H1299; normalized to mock
# Protocol: as §3
# as §1, with “All assays were performed at 24h, 48h and 72h time points.” left out
# as §2
# [7] = tested on: HCT116; experiment: Cell viability (MTS assay or cell count); format: cell-based; conditions: 10 nM; Colon HCT116; normalized to mock
# Protocol: as §3
# as §1, with “All assays were performed at 24h, 48h and 72h time points.” left out
# as §2
substance,measurement,setting,value
"miRNA-193a: duplex of the miRNA-193a-3p of SEQ ID NO: 218 (mimic, sense) with antisense strand SEQ ID NO: 219; naked in vitro, formulated in vivo (sense UGGGACUUUGUAGGCCAGUUTT; antisense AACUGGCCUACAAAGUCCCAGU; chemistry not given here; listed as Homo sapiens)",Apoptosis (48/72 h),[1],↑ (Induction < 2x)
same,Enrichment score (ES),[2]; Gene cluster Angiogenesis,2.17
same,Enrichment score (ES),[2]; Gene cluster Apoptosis,2.55
same,Enrichment score (ES),[2]; Gene cluster Chemotaxis,1.66
same,Enrichment score (ES),[2]; Gene cluster Glycosylation,1.47
same,Enrichment score (ES),[2]; Gene cluster Immune activation,1.16
same,Enrichment score (ES),[2]; Gene cluster Nucleoside metabolism,1.49
same,Enrichment score (ES),[2]; Gene cluster Oncogenesis,1.37
same,Enrichment score (ES),[2]; Gene cluster Protein transport,1.51
same,Enrichment score (ES),[2]; Gene cluster Unfolded protein response,1.84
same,Enrichment score (ES),[2]; Gene cluster Wound healing,1.18
same,Viability (96 h),[3],↓↓ (Viability < 50%)
same,Viability (96 h),[4],↓↓ (Viability < 50%)
same,Viability (96 h),[5],↓↓ (Viability < 50%)
same,Viability (96 h),[6],↓↓ (Viability < 50%)
same,Viability (96 h),[7],↓↓ (Viability < 50%)
